Data published in patent US20260070945A1, “MACROCYCLIC IMMUNOMODULATORS” (Bristol-Myers Squibb Company, priority 2022, published 2026).
Where a SMILES comes first, the peptide text is derived from it. Bridges are numbered along the chain shown (N, C = ends). [ ]: non-standard residue; d: D form. The star is where a group is joined. Phe(3-CF3) = N[C@@H](Cc1cccc(C(F)(F)F)c1)C(=O)O; Ala(morpholin-4-yl) = N[C@@H](CN1CCOCC1)C(=O)O; Phe(4-COOH) = N[C@@H](Cc1ccc(C(=O)O)cc1)C(=O)O; Bip = N[C@@H](Cc1ccc(-c2ccccc2)cc1)C(=O)O; NH(CH2)12COOH = O=C(O)CCCCCCCCCCCCN*; Val(3-OH) = CC(C)(O)[C@H](N)C(=O)O; Cha = N[C@@H](CC1CCCCC1)C(=O)O; Cit = NC(=O)NCCC[C@H](N)C(=O)O; Carboxymethyl = O=C(O)C*; NMeA = CN[C@@H](C)C(=O)O; Dab = NCC[C@H](N)C(=O)O

target: T1, PD-1/PD-L1 interaction (PE-labeled human PD-L1-Ig binding to Jurkat cell line over-expressing human PD-1) (Homo sapiens, UniProt Q15116); experiment: Jurkat-PD-1 Cell Binding High-Content Screening Assay (CBA); conditions: Jurkat-hPD-1 cells, PE-labeled PD-L1-Ig 20 nM final; read-out: Jurkat HPD1 PDL1 IC50
T1 construct: expressed in transfected cells; host or cells: Jurkat
Method in brief: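 High-content imaging read-out of PE-PD-L1-Ig binding (20 nM final, 1 h) to Jurkat-hPD-1 cells, after 2 h compound exposure at 37 °C in DMEM with 10% FCS. Nuclei counterstained with Hoechst 33342 after paraformaldehyde fixation.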

T1 sequence (Q15116 25-288): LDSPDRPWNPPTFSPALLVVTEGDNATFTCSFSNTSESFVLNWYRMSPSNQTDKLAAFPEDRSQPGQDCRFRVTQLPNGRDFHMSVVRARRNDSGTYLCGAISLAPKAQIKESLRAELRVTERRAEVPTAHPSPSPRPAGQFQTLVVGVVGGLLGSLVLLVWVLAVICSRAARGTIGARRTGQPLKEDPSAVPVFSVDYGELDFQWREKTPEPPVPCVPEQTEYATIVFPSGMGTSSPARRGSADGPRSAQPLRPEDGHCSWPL

SMILES | IC50
CC(C)C[C@H]1NC(=O)[C@H](C)N(C)C(=O)[C@H](CCC(N)=O)NC(=O)[C@H](Cc2ccc(-c3ccccc3)cc2)NC(=O)[C@H](Cc2ccc(C(=O)O)cc2)NC(=O)[C@H](Cc2cccc(C(F)(F)F)c2)NC(=O)[C@H](CC(=O)O)NC(=O)[C@H](Cc2ccc(OCC(=O)O)cc2)NC(=O)[C@H](Cc2ccc(C(=O)O)cc2)NC(=O)CSC[C@@H](C(=O)N[C@@H](CCN)C(=O)NCCCCCCCCCCCCC(=O)O)NC(=O)[C@H](CC(=O)O)NC(=O)[C@H](C(C)(C)O)NC(=O)[C@H](CC2CCCCC2)NC(=O)[C@H](CCN)NC1=O [Example 1142] ({CH2CO}-[Phe(4-COOH)]Y(Carboxymethyl)D[Phe(3-CF3)][Phe(4-COOH)][Bip]Q[NMeA][dL][Dab][Cha][Val(3-OH)]DC[Dab]-{NH(CH2)12COOH}; thioether N-14) | 24.8 nM
CC(C)C[C@H]1NC(=O)[C@H](C)N(C)C(=O)[C@H](CCC(N)=O)NC(=O)[C@H](Cc2ccc(-c3ccccc3)cc2)NC(=O)[C@H](Cc2ccc(C(=O)O)cc2)NC(=O)[C@H](Cc2cccc(C(F)(F)F)c2)NC(=O)[C@H](CC(=O)O)NC(=O)[C@H](Cc2ccc(OCC(=O)O)cc2)NC(=O)[C@H](Cc2ccc(C(=O)O)cc2)NC(=O)CSC[C@@H](C(=O)N[C@@H](CCN)C(=O)NCCCCCCCCCCCCC(=O)O)NC(=O)[C@H](CCC(=O)O)NC(=O)[C@H](C(C)C)NC(=O)[C@H](CC2CCCCC2)NC(=O)[C@H](CCN)NC1=O [Example 1143] ({CH2CO}-[Phe(4-COOH)]Y(Carboxymethyl)D[Phe(3-CF3)][Phe(4-COOH)][Bip]Q[NMeA][dL][Dab][Cha]VEC[Dab]-{NH(CH2)12COOH}; thioether N-14) | 21.4 nM
CC(C)C[C@H]1NC(=O)[C@H](C)N(C)C(=O)[C@H](CCC(N)=O)NC(=O)[C@H](Cc2ccc(-c3ccccc3)cc2)NC(=O)[C@H](Cc2ccc(C(=O)O)cc2)NC(=O)[C@H](Cc2cccc(C(F)(F)F)c2)NC(=O)[C@H](CC(=O)O)NC(=O)[C@H](Cc2ccc(OCC(=O)O)cc2)NC(=O)[C@H](Cc2ccc(C(=O)O)cc2)NC(=O)CSC[C@@H](C(=O)N[C@@H](CCN)C(=O)NCCCCCCCCCCCCC(=O)O)NC(=O)[C@H](CO)NC(=O)[C@H](C(C)(C)O)NC(=O)[C@H](CC2CCCCC2)NC(=O)[C@H](CCN)NC1=O [Example 1144] ({CH2CO}-[Phe(4-COOH)]Y(Carboxymethyl)D[Phe(3-CF3)][Phe(4-COOH)][Bip]Q[NMeA][dL][Dab][Cha][Val(3-OH)]SC[Dab]-{NH(CH2)12COOH}; thioether N-14) | 14 nM
CC(C)C[C@H]1NC(=O)[C@H](C)N(C)C(=O)[C@H](CCC(N)=O)NC(=O)[C@H](Cc2ccc(-c3ccccc3)cc2)NC(=O)[C@H](Cc2ccc(C(=O)O)cc2)NC(=O)[C@H](Cc2cccc(C(F)(F)F)c2)NC(=O)[C@H](CC(=O)O)NC(=O)[C@H](Cc2ccc(OCC(=O)O)cc2)NC(=O)[C@H](Cc2ccc(C(=O)O)cc2)NC(=O)CSC[C@@H](C(=O)N[C@@H](CCN)C(=O)NCCCCCCCCCCCCC(=O)O)NC(=O)[C@H](Cc2c[nH]cn2)NC(=O)[C@H](C(C)(C)O)NC(=O)[C@H](CC2CCCCC2)NC(=O)[C@H](CCN)NC1=O [Example 1145] ({CH2CO}-[Phe(4-COOH)]Y(Carboxymethyl)D[Phe(3-CF3)][Phe(4-COOH)][Bip]Q[NMeA][dL][Dab][Cha][Val(3-OH)]HC[Dab]-{NH(CH2)12COOH}; thioether N-14) | 11.2 nM
CC(C)C[C@H]1NC(=O)[C@H](C)N(C)C(=O)[C@H](CCCNC(N)=O)NC(=O)[C@H](Cc2ccc(-c3ccccc3)cc2)NC(=O)[C@H](Cc2ccc(C(=O)O)cc2)NC(=O)[C@H](Cc2cccc(C(F)(F)F)c2)NC(=O)[C@H](CC(=O)O)NC(=O)[C@H](Cc2ccc(OCC(=O)O)cc2)NC(=O)[C@H](Cc2ccc(C(=O)O)cc2)NC(=O)CSC[C@@H](C(=O)N[C@@H](CCN)C(=O)NCCCCCCCCCCCCC(=O)O)NC(=O)[C@H](CC(=O)O)NC(=O)[C@H](C(C)(C)O)NC(=O)[C@H](CC2CCCCC2)NC(=O)[C@H](CCN)NC1=O [Example 1146] ({CH2CO}-[Phe(4-COOH)]Y(Carboxymethyl)D[Phe(3-CF3)][Phe(4-COOH)][Bip][Cit][NMeA][dL][Dab][Cha][Val(3-OH)]DC[Dab]-{NH(CH2)12COOH}; thioether N-14) | 13.7 nM
CC(C)C[C@H]1NC(=O)[C@H](C)N(C)C(=O)[C@H](CCCNC(N)=O)NC(=O)[C@H](Cc2ccc(-c3ccccc3)cc2)NC(=O)[C@H](Cc2ccc(C(=O)O)cc2)NC(=O)[C@H](Cc2cccc(C(F)(F)F)c2)NC(=O)[C@H](CC(=O)O)NC(=O)[C@H](Cc2ccc(OCC(=O)O)cc2)NC(=O)[C@H](Cc2ccc(C(=O)O)cc2)NC(=O)CSC[C@@H](C(=O)N[C@@H](CCN)C(=O)NCCCCCCCCCCCCC(=O)O)NC(=O)[C@H](CCC(=O)O)NC(=O)[C@H](C(C)C)NC(=O)[C@H](CC2CCCCC2)NC(=O)[C@H](CCN)NC1=O [Example 1147] ({CH2CO}-[Phe(4-COOH)]Y(Carboxymethyl)D[Phe(3-CF3)][Phe(4-COOH)][Bip][Cit][NMeA][dL][Dab][Cha]VEC[Dab]-{NH(CH2)12COOH}; thioether N-14) | 13.2 nM
CC(C)C[C@H]1NC(=O)[C@H](C)N(C)C(=O)[C@H](CCCNC(N)=O)NC(=O)[C@H](Cc2ccc(-c3ccccc3)cc2)NC(=O)[C@H](Cc2ccc(C(=O)O)cc2)NC(=O)[C@H](Cc2cccc(C(F)(F)F)c2)NC(=O)[C@H](CC(=O)O)NC(=O)[C@H](Cc2ccc(OCC(=O)O)cc2)NC(=O)[C@H](Cc2ccc(C(=O)O)cc2)NC(=O)CSC[C@@H](C(=O)N[C@@H](CCN)C(=O)NCCCCCCCCCCCCC(=O)O)NC(=O)[C@H](CO)NC(=O)[C@H](C(C)(C)O)NC(=O)[C@H](CC2CCCCC2)NC(=O)[C@H](CCN)NC1=O [Example 1148] ({CH2CO}-[Phe(4-COOH)]Y(Carboxymethyl)D[Phe(3-CF3)][Phe(4-COOH)][Bip][Cit][NMeA][dL][Dab][Cha][Val(3-OH)]SC[Dab]-{NH(CH2)12COOH}; thioether N-14) | 17.8 nM
CC(C)C[C@H]1NC(=O)[C@H](C)N(C)C(=O)[C@H](CCCNC(N)=O)NC(=O)[C@H](Cc2ccc(-c3ccccc3)cc2)NC(=O)[C@H](Cc2ccc(C(=O)O)cc2)NC(=O)[C@H](Cc2cccc(C(F)(F)F)c2)NC(=O)[C@H](CC(=O)O)NC(=O)[C@H](Cc2ccc(OCC(=O)O)cc2)NC(=O)[C@H](Cc2ccc(C(=O)O)cc2)NC(=O)CSC[C@@H](C(=O)N[C@@H](CCN)C(=O)NCCCCCCCCCCCCC(=O)O)NC(=O)[C@H](Cc2c[nH]cn2)NC(=O)[C@H](C(C)(C)O)NC(=O)[C@H](CC2CCCCC2)NC(=O)[C@H](CCN)NC1=O [Example 1149] ({CH2CO}-[Phe(4-COOH)]Y(Carboxymethyl)D[Phe(3-CF3)][Phe(4-COOH)][Bip][Cit][NMeA][dL][Dab][Cha][Val(3-OH)]HC[Dab]-{NH(CH2)12COOH}; thioether N-14) | 15.2 nM
CC(C)C[C@H]1NC(=O)[C@H](C)N(C)C(=O)[C@H](CCC(N)=O)NC(=O)[C@H](Cc2ccc(-c3ccccc3)cc2)NC(=O)[C@H](Cc2ccc(C(=O)O)cc2)NC(=O)[C@H](Cc2cccc(C(F)(F)F)c2)NC(=O)[C@H](CC(=O)O)NC(=O)[C@H](Cc2ccc(OCC(=O)O)cc2)NC(=O)[C@H](CN2CCOCC2)NC(=O)CSC[C@@H](C(=O)N[C@@H](CCN)C(=O)NCCCCCCCCCCCCC(=O)O)NC(=O)[C@H](CC(=O)O)NC(=O)[C@H](C(C)(C)O)NC(=O)[C@H](CC2CCCCC2)NC(=O)[C@H](CCN)NC1=O [Example 1150] ({CH2CO}-[Ala(morpholin-4-yl)]Y(Carboxymethyl)D[Phe(3-CF3)][Phe(4-COOH)][Bip]Q[NMeA][dL][Dab][Cha][Val(3-OH)]DC[Dab]-{NH(CH2)12COOH}; thioether N-14) | 16 nM
CC(C)C[C@H]1NC(=O)[C@H](C)N(C)C(=O)[C@H](CCC(N)=O)NC(=O)[C@H](Cc2ccc(-c3ccccc3)cc2)NC(=O)[C@H](Cc2ccc(C(=O)O)cc2)NC(=O)[C@H](Cc2cccc(C(F)(F)F)c2)NC(=O)[C@H](CC(=O)O)NC(=O)[C@H](Cc2ccc(OCC(=O)O)cc2)NC(=O)[C@H](CN2CCOCC2)NC(=O)CSC[C@@H](C(=O)N[C@@H](CCN)C(=O)NCCCCCCCCCCCCC(=O)O)NC(=O)[C@H](CCC(=O)O)NC(=O)[C@H](C(C)C)NC(=O)[C@H](CC2CCCCC2)NC(=O)[C@H](CCN)NC1=O [Example 1151] ({CH2CO}-[Ala(morpholin-4-yl)]Y(Carboxymethyl)D[Phe(3-CF3)][Phe(4-COOH)][Bip]Q[NMeA][dL][Dab][Cha]VEC[Dab]-{NH(CH2)12COOH}; thioether N-14) | 6.1 nM
CC(C)C[C@H]1NC(=O)[C@H](C)N(C)C(=O)[C@H](CCC(N)=O)NC(=O)[C@H](Cc2ccc(-c3ccccc3)cc2)NC(=O)[C@H](Cc2ccc(C(=O)O)cc2)NC(=O)[C@H](Cc2cccc(C(F)(F)F)c2)NC(=O)[C@H](CC(=O)O)NC(=O)[C@H](Cc2ccc(OCC(=O)O)cc2)NC(=O)[C@H](CN2CCOCC2)NC(=O)CSC[C@@H](C(=O)N[C@@H](CCN)C(=O)NCCCCCCCCCCCCC(=O)O)NC(=O)[C@H](CO)NC(=O)[C@H](C(C)(C)O)NC(=O)[C@H](CC2CCCCC2)NC(=O)[C@H](CCN)NC1=O [Example 1152] ({CH2CO}-[Ala(morpholin-4-yl)]Y(Carboxymethyl)D[Phe(3-CF3)][Phe(4-COOH)][Bip]Q[NMeA][dL][Dab][Cha][Val(3-OH)]SC[Dab]-{NH(CH2)12COOH}; thioether N-14) | 11.8 nM
CC(=O)NCCCC[C@@H]1NC(=O)[C@H](C(C)(C)O)NC(=O)[C@H](CC2CCCCC2)NC(=O)[C@H](CCN)NC(=O)[C@@H](CC(C)C)NC(=O)[C@H](C)N(C)C(=O)[C@H](CCC(N)=O)NC(=O)[C@H](Cc2ccc(-c3ccccc3)cc2)NC(=O)[C@H](Cc2ccc(C(=O)O)cc2)NC(=O)[C@H](Cc2cccc(C(F)(F)F)c2)NC(=O)[C@H](CC(=O)O)NC(=O)[C@H](Cc2ccc(OCC(=O)O)cc2)NC(=O)[C@H](CN2CCOCC2)NC(=O)CSC[C@@H](C(=O)N[C@@H](CCN)C(=O)NCCCCCCCCCCCCC(=O)O)NC1=O [Example 1153] ({CH2CO}-[Ala(morpholin-4-yl)]Y(Carboxymethyl)D[Phe(3-CF3)][Phe(4-COOH)][Bip]Q[NMeA][dL][Dab][Cha][Val(3-OH)]K(Ac)C[Dab]-{NH(CH2)12COOH}; thioether N-14) | 12.9 nM
